{"source": "ChEMBL document CHEMBL1201862", "about": "“PubChem BioAssay data set” (2004)", "key": {"Bcl-2-like protein 10": {"target": "T1, Bcl-2-like protein 10 (Homo sapiens, UniProt Q9HD36)", "T1 sequence (Q9HD36 whole entry)": "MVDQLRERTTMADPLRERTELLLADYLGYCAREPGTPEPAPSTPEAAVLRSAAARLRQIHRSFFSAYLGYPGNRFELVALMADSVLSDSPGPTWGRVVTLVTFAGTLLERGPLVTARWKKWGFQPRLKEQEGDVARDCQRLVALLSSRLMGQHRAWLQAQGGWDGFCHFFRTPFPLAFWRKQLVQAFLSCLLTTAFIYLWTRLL", "experiment": "displacers of TR3 peptide from Bcl-B, primary screen, selectivity assay for Bfl-1 inhibitor project, biochemical, fluorescence polarization, FITC-TR3 peptide (AID 748);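 further: fluorescence polarization from a fluorescein-labelled TR3 peptide binding purified Bcl-B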"}, "[1]": {"experiment": "HepG2 cell cytotoxicity, dose response, cytotoxicity control, ATP luminescence, cherry-pick, activator set 2 (AID 1053143)", "assay_type": "functional, cell-based"}, "Beta-galactosidase": {"target": "Beta-galactosidase (Escherichia coli, UniProt Q8VNN2)", "experiment": "beta-galactosidase enzyme inhibitors and activators, dose response, artefact control for CCR6 antagonist project, biochemical, E. coli enzyme, set 3 (AID 504712)", "assay_type": "functional"}, "H4": {"system": "H4", "experiment": "Luminescence Cell-Based Dose Response HTS to Identify Activators of 5'UTR Stem-Loop Driven Prion Protein mRNA Translation in H4 Neuroglioblastoma Cells. [Related pubchem assays: 1829 (Project Summary), 1814 (Primary HTS)]", "assay_type": "functional", "details": "Homo sapiens"}, "[2]": {"experiment": "Luminescence Cell-Based Dose Confirmation HTS to Identify Activators of 5'UTR Stem-Loop Driven Alpha-Synuclein mRNA Translation in H4 Neuroglioblastoma Cells. [Related pubchem assays: 1829 (Project Summary), 1814 (Primary HTS)]", "assay_type": "functional"}, "[3]": {"experiment": "Luminescence Cell-Based Dose Response HTS to Identify Activators of Luciferase Translation or Activity in H4 […] Cells. [Related pubchem assays: 1829 (Project Summary), 1814 (Primary HTS)]", "assay_type": "functional"}, "[4]": {"experiment": "M. tuberculosis H37Rv growth inhibitors, H37Rv strain (AID 1626)", "assay_type": "functional"}, "[5]": {"target": "T2, Calpain-2 catalytic subunit (Sus scrofa, UniProt P43367)", "T2 sequence (P43367 whole entry)": "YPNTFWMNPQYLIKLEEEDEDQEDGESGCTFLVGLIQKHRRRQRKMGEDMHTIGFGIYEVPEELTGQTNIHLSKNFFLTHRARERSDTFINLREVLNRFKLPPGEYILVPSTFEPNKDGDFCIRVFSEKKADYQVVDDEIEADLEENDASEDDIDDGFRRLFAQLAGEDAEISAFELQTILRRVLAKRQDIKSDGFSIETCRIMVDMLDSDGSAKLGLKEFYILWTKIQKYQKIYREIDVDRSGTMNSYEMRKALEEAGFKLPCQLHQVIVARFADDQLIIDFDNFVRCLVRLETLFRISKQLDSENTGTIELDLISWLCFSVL", "experiment": "pig calpain II inhibitor potency, dose response, biochemical, fluorogenic peptide substrate (AID 1420)", "assay_type": "functional"}, "[6]": {"target": "T3, Rac GTPase-activating protein 1 (Homo sapiens, UniProt Q9H0H5)", "T3 sequence (Q9H0H5 whole entry)": "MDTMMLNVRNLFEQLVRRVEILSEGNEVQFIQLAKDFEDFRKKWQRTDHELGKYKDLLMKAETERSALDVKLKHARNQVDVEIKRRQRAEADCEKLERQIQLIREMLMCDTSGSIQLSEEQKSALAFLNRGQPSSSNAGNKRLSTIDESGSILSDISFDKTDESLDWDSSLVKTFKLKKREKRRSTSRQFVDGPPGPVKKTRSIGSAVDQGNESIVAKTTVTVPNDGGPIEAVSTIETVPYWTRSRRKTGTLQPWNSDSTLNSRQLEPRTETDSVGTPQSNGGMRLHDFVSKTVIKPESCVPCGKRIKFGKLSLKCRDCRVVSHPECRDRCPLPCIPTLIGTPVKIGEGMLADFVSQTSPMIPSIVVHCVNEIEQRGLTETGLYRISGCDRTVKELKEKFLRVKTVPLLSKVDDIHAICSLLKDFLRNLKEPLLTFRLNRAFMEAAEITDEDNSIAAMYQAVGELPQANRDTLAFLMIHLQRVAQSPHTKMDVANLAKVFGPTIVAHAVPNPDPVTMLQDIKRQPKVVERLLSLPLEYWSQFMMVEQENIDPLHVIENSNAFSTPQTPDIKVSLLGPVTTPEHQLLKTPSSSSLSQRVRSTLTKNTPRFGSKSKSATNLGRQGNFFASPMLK", "experiment": "MgcRacGAP GTPase-activating activity inhibitors, confirmation, biochemical, ADP Hunter fluorescence, primary and confirmatory (AID 624330)", "assay_type": "functional"}, "[7]": {"experiment": "A549 cell cytotoxicity, dose response, cytotoxicity control, plate reader, cherry-pick, antagonist series (AID 743412)", "assay_type": "functional, cell-based"}, "[8]": {"experiment": "LGR2 antagonists, dose response, cell-based, HEK293, CRE-luciferase reporter, cherry pick, set 2 (AID 743343);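 further: transfected cells were stimulated with diluted bursicon conditioned medium after compound addition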", "assay_type": "functional"}, "[9]": {"experiment": "MC4R antagonists, dose response, counter-screen for LGR2 antagonist project, cell-based, plate reader, cherry pick (AID 743444);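 further: transfected HEK 293 cells stimulated with alpha-MSH peptide; potency of inhibitors of the alpha-MSH evoked signal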", "assay_type": "functional"}, "Major prion protein": {"target": "Major prion protein (Homo sapiens, UniProt P04156)", "assay_type": "functional, cell-based"}, "[10]": {"experiment": "growth suppression of PTEN-null colon cells, dose response, cell-based, HCT116 PTEN knockout (AID 1047);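 further: HCT116 colon tumor cells with PTEN knocked out; cells exposed to compound for 60 hours before readout; potency for loss of cell viability measured by luminescence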", "assay_type": "functional"}, "Trypsin": {"target": "Trypsin (Sus scrofa, UniProt P00761)", "experiment": "porcine trypsin inhibitors, dose response, selectivity assay for Rce1 protease inhibitor project, biochemical, quenched peptide fluorescence, cherry-pick (AID 488789)"}, "[11]": {"experiment": "growth suppression of beta-catenin-knockout colon cells, dose response, cell-based, HCT116, human colon tumor (AID 1045);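 further: HCT116 colon tumor cells with beta catenin knocked out; cells exposed to compound for 60 hours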", "assay_type": "functional"}, "[12]": {"experiment": "NIH-3T3 fibroblast cytotoxicity, dose response, cytotoxicity control, cell-based, fluorescence, Alamar Blue, secondary assay (AID 2327);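 further: NIH-3T3 mouse fibroblasts cultured with fluconazole at 8 µg/mL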", "assay_type": "functional"}, "[13]": {"experiment": "C. albicans growth with fluconazole, confirmation, fluorescence, retest (AID 2467)", "assay_type": "functional, cell-based"}, "[14]": {"target": "Glyceraldehyde-3-phosphate dehydrogenase (Homo sapiens, UniProt P04406)"}, "[15]": {"experiment": "Shn3 3'UTR reporter inhibitors, dose response, cell-based, Clone20 osteoblasts, firefly luciferase, cherry-picked (AID 624132)", "assay_type": "functional"}, "[16]": {"experiment": "human group III sPLA2 inhibitors, dose response, biochemical, QFRET, IC50 (AID 743457);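 further: green fluorescence rise as the enzyme cleaves BODIPY PC-A2 in liposomes; potency for inhibition of the enzyme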"}, "[17]": {"experiment": "control 3'UTR Renilla luciferase suppression, dose response, counter-screen for Shn3 inhibitor project, cell-based, Clone20-Shn3RL, cherry-picked (AID 624133)", "assay_type": "functional"}}, "note": "Activity calls are given as the source filed them.", "data": [{"smiles": "COc1ccc(Nc2cc(C)nc3nc(C)nn23)cc1Cl", "values": [{"measurement": "IC50", "setting": "Bcl-2-like protein 10", "result": "> 100 µM (inactive)"}]}, {"smiles": "Cc1cc(NC(=O)c2ccccc2)ncc1NC(=O)c1ccco1", "values": [{"measurement": "AC50", "setting": "[1]", "result": "26 µM (active)"}]}, {"smiles": "CCCC(=O)N1c2ccccc2C(=C2SC(C(=O)OC)=C(C(=O)OC)S2)C(=S)C1(C)C", "values": [{"measurement": "IC50", "setting": "Beta-galactosidase", "result": "> 66.6 µM (inactive)"}, {"measurement": "EC50", "setting": "H4", "result": "> 120 µM (not active)"}, {"measurement": "EC50", "setting": "[2]", "result": "> 60 µM (not active)"}, {"measurement": "EC50", "setting": "[3]", "result": "> 120 µM (not active)"}]}, {"smiles": "COc1ccc(NC(C)c2cc(Cl)ccc2O)cc1", "note": "(centres undefined)", "values": [{"measurement": "IC50", "setting": "[4]", "result": "> 100 µM (active)"}, {"measurement": "IC50", "setting": "[5]", "result": "13.9 µM (not active)"}, {"measurement": "IC50", "setting": "[6]", "result": "69.1 µM (active)"}]}, {"smiles": "N#C[C@@H]1[C@H](c2ccc(C#CC3CCCCC3)cc2)[C@@H](CO)N1S(=O)(=O)c1ccccc1", "values": [{"measurement": "AC50", "setting": "[7]", "result": "27.9 µM (active)"}, {"measurement": "AC50", "setting": "[8]", "result": "12.8 µM (active)"}, {"measurement": "AC50", "setting": "[9]", "result": "8.18 µM (active)"}]}, {"smiles": "Cc1nc2ccc(Br)cc2c(-c2ccccc2)c1C(=O)O", "values": [{"measurement": "IC50", "setting": "cells", "result": "> 138 µM (inactive)"}, {"measurement": "IC50", "setting": "Major prion protein", "result": "5.47 µM (active)"}]}, {"smiles": "O=C(COc1ccccc1)Nc1cccc(-c2nc3cc4ccccc4cc3[nH]2)c1", "values": [{"measurement": "EC50", "setting": "[10]", "result": "11.8 µM (active)"}, {"measurement": "AC50", "setting": "Trypsin", "result": "5.74 µM (active)"}, {"measurement": "EC50", "setting": "[11]", "result": "12.1 µM (active)"}, {"measurement": "EC50", "setting": "[12]", "result": "7.43 µM (active)"}, {"measurement": "EC50", "setting": "[13]", "result": "1.64 µM (active)"}]}, {"smiles": "COc1ccc(N2CCN(C3=C(Cl)C(=O)N(c4cccc(C)c4)C3=O)CC2)cc1", "values": [{"measurement": "IC50", "setting": "[14]", "result": "> 50 µM (inconclusive)"}]}, {"smiles": "O=C1/C(=C/c2ccccn2)SC(=S)N1Nc1ncc(C(F)(F)F)cc1Cl", "values": [{"measurement": "AC50", "setting": "[15]", "result": "49.9 µM (active)"}, {"measurement": "IC50", "setting": "[16]", "result": "47.8 µM (inactive)"}, {"measurement": "AC50", "setting": "[17]", "result": "33.1 µM (active)"}]}, {"smiles": "CCCc1ccc(-c2cc(C(=O)NC3=NCCS3)c3ccccc3n2)cc1", "values": [{"measurement": "IC50", "setting": "[4]", "result": "> 100 µM (active)"}]}]}
